Experimental data taken from PMC8006131, “Pulse Dipolar EPR Reveals Double-Histidine Motif Cu^II−NTA Spin-Labeling Robustness against Competitor Ions” (The journal of physical chemistry letters, 2021).
Where “and” joins values, the source holds several entries; their conditions need not be identical. Equal entries are not always repeated. Where two headings read alike, the source gives them in different places.

Columns and labels:
I6R1/K28H/Q32H GB1 [1] = molecular target: T1, I6R1/K28H/Q32H GB1 (Streptococcus sp. group G, UniProt P06654, I232C/K254H/Q258H); assay: Cu^II-nitroxide RIDME pseudotitration (pulse dipolar EPR); type: binding; conditions: for Kd: read-out: fitted dissociation constant (bivariate fit)
T1 construct: MTSL nitroxide spin label on Cys6 (R1 side chain); made in house
Source text: (§1) I Experimental Procedures:
(§2) 1.1 Construct Design, Expression and Purification:
(§3) Constructs of Streptococcus sp. group G, protein G B1 domain (GB1) were designed, expressed and purified as previously described.1,2 For completeness the protein sequences for the K28H/Q32H and I6C/K28H/Q32H GB1 constructs are given below in figures S1 and S2, respectively. The positions of the cysteine and double-histidine motif are indicated in cyan and green, respectively.
(§4) K28H/Q32H GB1 Protein Sequence:
(§5) Figure S1. Full amino-acid sequence for the K28H/Q32H GB1 construct used in this work, with each histidine residue of the double-histidine motif shown in green; and residue number indicated above the sequence.
(§6) I6C/K28H/Q32H GB1 Protein Sequence:
Figure S2. Full amino-acid sequence for the I6C/K28H/Q32H GB1 construct used in this work, with the cysteine residue shown in cyan and each histidine residue of the double-histidine motif shown in green; and residue numbers indicated […]
1.2 Pulse EPR Sample Preparation:
All material was exchanged into pH-adjusted deuterated buffer A (42.4 mM Na2HPO4, 7.6 mM KH2PO4, 150 mM NaCl) by first freeze-drying and then re-dissolving in D2O. For Q-band RIDME samples of 6R1/28H/32H GB1, a total volume of 70 μL was used, with protein concentrations of 1, 2, or 5 μM as stated. All EPR samples were frozen by direct immersion into liquid nitrogen. ZnII-NTA and CuII-NTA stock solutions were prepared as previously described1,3; and for labelling, ZnII-NTA and CuII-NTA stock solutions with nominal concentrations of 100 and 10 mM were used, […]
1.3 Metal Chelate Spin Label Preparation:
For preparation of all metal-NTA labels: CuII-NTA, and ZnII-NTA, , ZnCl2, CuCl2 and NTA were weighed in a glove-box and aliquoted into 1.5 mL reaction tubes. Stock solutions of 100 mM were prepared as previously described.3 Complete dissolution was ensured by vortexing until solutions were clear […]
of precipitate. […]
1.5 Pulse EPR Measurements:
All pulse EPR experiments were performed using a Bruker ELEXSYS 580 pulse EPR spectrometer.
Temperatures were maintained using a cryogen-free variable temperature cryostat (Cryogenic Ltd) operating in the 1.8-300 K temperature range. All measurements of the electron spin longitudinal relaxation times (T1) of CuII-NTA, and all 5-pulse dead-time free RIDME measurements4 were performed at 30 K, using a high-power 150 W travelling-wave tube (TWT; Applied Systems […]
an SRT of 2 ms, with 2560 points, 25 shots-per-point, and 1-5 scans, as stated. A τ of 800 ns was used, with an approximate time-window length of […], incremented in steps of 200 ns.
1.6 Competitive Binding Model:
Let us begin by considering a binding equilibrium in presence of a competitor ligand (A), with the following two approximations: i) the binding of the ligand (L) and (A) to a protein (P) is mutually exclusive, and ii) the competitor (A) binds to (P) weakly with respect to (L). Here we can define a dissociation constant for both the ligand (KDL) and for the competitor (KDA), given in (S1) and (S2) […]
Rearranging (S1) and (S2) for equilibrium concentrations of protein and protein-competitor complex, given as [P] and [PA] respectively, yields (S3) and (S4):
Here, an expression for total protein, [P]0, can be defined:
Substitution of (S3) and (S4) into (S5) yields (S6):
Symbolic substitution and rearrangement of (S6) to solve for [PL] yields (S7): […]

6R1/28H/32H GB1 = molecular target: 6R1/28H/32H GB1; parameters: method as in earlier work; conditions: pH 7.4; 75 μM protein, 2 mM CuII-NTA; cited from earlier work
I6R1/K28H/Q32H GB1 [2] = molecular target: T1, I6R1/K28H/Q32H GB1; assay: Zn^II–NTA competitor RIDME pseudotitration (competition assay in presence of Cu^II–NTA); type: binding; conditions: low μM protein concentration
Method: The corresponding RIDME pseudotitration was performed at 1 μM protein concentration in the presence of 10 μM Cu^II– NTA (to ensure quantitative loading at the double histidine motif prior to addition of competitor ligand (see SI section 1.6)) and varying Zn^II–NTA concentrations. […] Additionally, this benchmarks quantitation of Cu^II-nitroxide RIDME modulation depths for remotely determining binding affinities of EPR silent ligands, in a competition assay format.
as §1, §2, §3, §4, §5, §6
Figure S2. […]

I6R1/K28H/Q32H GB1 [3] = molecular target: T1, I6R1/K28H/Q32H GB1; conditions: pH 7.4; previous work; read-out: fitted dissociation constant; cited from earlier work
K28H/Q32H GB1 = molecular target: T2, K28H/Q32H GB1 (Streptococcus sp. group G, UniProt P06654, K254H/Q258H); assay: Isothermal titration calorimetry (ITC) at 298 K, single-site binding model
T2 construct: made in house
Method: seconds between injections, at 298 K. All solutions were degassed before the use and the final samples were centrifuged immediately before measurements. For the ZnII-NTA measurements, K28H/Q32H GB1 concentration was 800 μΜ, and titrant concentration was 12 mM. For the variable pH measurements, K28H/Q32H GB1 concentration was 75 μM and titrant concentration was 2.5 mM. Blank conditions of either buffer A (42.4 mM Na2HPO4, 7.6 mM KH2PO4, 150 mM NaCl, pH 7.4) titrated against addition of 12 mM titrant, or pH adjusted buffer A titrated against addition of 1.0 or 2.0 mM titrant, were recorded for the competitor and variable pH ITC measurements, respectively.
Subtraction of the blank measurements from the raw data mitigated the heat of dilution. All data analyses were performed in MicroCal Origin 7 (OriginLab, Northampton, MA) and thermodynamic parameters were derived using standard Marquardt fitting of a single-site binding model, as in our previous work.1 The fitted equation is given as:
Where: 3($) is the heat content of the solution at the point of the <th injection, is the binding constant, 4 is the stoichiometry of binding, =7 is the molar heat of ligand binding, 8 is the active cell volume, 56 is the total concentration of macromolecule contained in 8 , :6 is the total concentration of ligand contained in 8 .
1.8 UV-visible Spectroscopy:
All UV-visible absorbance spectra were recorded using a Jenway 67 series UV-vis spectrophotometer, in plastic cuvettes with a path length of 10 mm, in single-beam mode. All spectra are recorded at ambient temperature, and with a wavelength resolution of 1 nm, in the wavelength range 320-800 nm. Each sample was blanked before measurement, and all were repeated in triplicate. Data was processed using the Jenway 67-series software suite, and were exported to ASCII format for plotting and analysis in Matlab. For quantitation of CuII-IDA and CuII-NTA concentration, molar extinction coefficients of 62 M-1 cm-1 and 59 M-1cm-1 at 726 nm, and 800 nm were used, respectively, taken from previous literature.1,11

[4] = pH 6.4, 298 K, listed as CuII-NTA

O=C([O-])CN(CC(=O)[O-])CC(=O)[O-].[Cu+2] [Cu^II–NTA, Cu^II-nitrilotriacetic acid]
affinity reduction compared to pH 7.4 (I6R1/K28H/Q32H GB1 [1]; pH 6.4): 2 fold | available double-histidine motifs saturated (I6R1/K28H/Q32H GB1 [1]; pH 6.4, 5 μM protein, 1 equiv of Cu^II–NTA): ~70% | Kd (I6R1/K28H/Q32H GB1 [1]; pH 6.4, 5 μM protein): 0.31 µM and 0.308 µM | binding affinity higher than at pH 7.4 (I6R1/K28H/Q32H GB1 [1]; pH 8.4): approximately 2 fold | Kd (I6R1/K28H/Q32H GB1 [1]; pH 8.4, 2 μM protein): 0.091 µM | Kd (6R1/28H/32H GB1): 5 µM | robust against Zn^II–NTA competitor ligand in molar excess (I6R1/K28H/Q32H GB1 [2]): > 1000 fold | Kd (I6R1/K28H/Q32H GB1 [3]): 0.14 µM | binding at the double-histidine motif (K28H/Q32H GB1; pH 5.0, 298 K, 75 μM protein, 2 mM Cu^II–NTA): negligible binding | Wiseman factor (K28H/Q32H GB1; pH 6.4): 0.76 | n (stoichiometry of binding) (K28H/Q32H GB1; pH 6.4, 298 K): ~ 1 | ΔH (K28H/Q32H GB1; pH 6.4, 298 K): -6.9 kcal/mol | n (stoichiometry of binding) (K28H/Q32H GB1; [4]): 0.97 | ΔH (K28H/Q32H GB1; [4]): -6.94 kcal/mol | Kd (K28H/Q32H GB1; pH 6.4, 298 K, read-out: KD): 98.6 µM | Kd (K28H/Q32H GB1; pH 6.4, ΔH extrapolated to 235 K, listed as CuII-NTA, read-out: Predicted KD at 235 K): 4.26 µM | Kd (K28H/Q32H GB1; pH 6.4, ΔH extrapolated to 235 K, read-out: Predicted KD at 235 K): ~4 µM | Wiseman factor (K28H/Q32H GB1; pH 8.4): 9.42 | n (stoichiometry of binding) (K28H/Q32H GB1; pH 8.4, 298 K): ~ 2 | ΔH (K28H/Q32H GB1; pH 8.4, 298 K): -15.2 kcal/mol | n (stoichiometry of binding) (K28H/Q32H GB1; pH 8.4, 298 K, listed as CuII-NTA): 2.04 | Kd (K28H/Q32H GB1; pH 8.4, 298 K, listed as CuII-NTA, read-out: KD): 7.96 µM | Kd (K28H/Q32H GB1; pH 8.4, 298 K, read-out: KD): 8 µM | predicted increase in affinity compared to previous work (K28H/Q32H GB1; pH 8.4, predicted from room-temperature ITC): 20 fold | Wiseman factor (K28H/Q32H GB1; pH 9.0): 3.00 | ΔH (K28H/Q32H GB1; pH 9.0, 298 K): -2.92 kcal/mol | n (stoichiometry of binding) (K28H/Q32H GB1; pH 9.0, 298 K, 1 mM CuII-NTA): 0.94 | Kd (K28H/Q32H GB1; pH 9.0, 298 K, read-out: KD): 25 µM | Kd (K28H/Q32H GB1; pH 9.0, read-out: Predicted KD at 235 K): 6.67 µM
